According to publication PMC12668310, “High‐Throughput Synthesis and Screening of a Cyanimide Library Identifies Selective Inhibitors of ISG15‐Specific Protease mUSP18” (Angewandte Chemie (International Ed. in English), 2025):
Read-outs that look alike come from different tables or passages of the source.

Experiments:
UCHL1 = molecular target: T1, UCHL1 (Homo sapiens, UniProt P09936); experiment: IC50 determination, fluorogenic Ub-Rho-morpholine activity assay; type: biochemical; conditions: for IC50: after 30 min incubation, purified compound
T1 construct: (1-223); made in house
T1 sequence (P09936 1-223): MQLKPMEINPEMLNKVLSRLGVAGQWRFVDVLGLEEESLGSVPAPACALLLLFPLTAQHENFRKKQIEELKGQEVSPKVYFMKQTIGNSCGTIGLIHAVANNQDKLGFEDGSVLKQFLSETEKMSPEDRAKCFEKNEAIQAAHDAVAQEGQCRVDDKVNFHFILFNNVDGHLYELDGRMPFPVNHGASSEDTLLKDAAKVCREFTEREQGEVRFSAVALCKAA

UCHL3 = molecular target: T2, UCHL3 (Homo sapiens, UniProt P15374); experiment: as above; type: biochemical; conditions: after 30 min incubation; purified compound
T2 construct: (1-230); made in house
T2 sequence (P15374 1-230): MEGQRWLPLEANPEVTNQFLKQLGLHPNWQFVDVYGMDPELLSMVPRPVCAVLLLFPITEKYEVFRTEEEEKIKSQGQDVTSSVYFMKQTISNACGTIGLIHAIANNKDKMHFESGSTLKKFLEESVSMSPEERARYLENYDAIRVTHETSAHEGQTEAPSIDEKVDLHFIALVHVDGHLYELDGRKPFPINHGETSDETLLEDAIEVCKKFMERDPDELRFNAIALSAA

USP7 = molecular target: T3, USP7 (Homo sapiens, UniProt Q93009); experiment: as above; type: biochemical; conditions: after 30 min incubation; purified compound
T3 construct: (1-1102); GST (cleaved yes); made in house
T3 sequence (Q93009 whole entry): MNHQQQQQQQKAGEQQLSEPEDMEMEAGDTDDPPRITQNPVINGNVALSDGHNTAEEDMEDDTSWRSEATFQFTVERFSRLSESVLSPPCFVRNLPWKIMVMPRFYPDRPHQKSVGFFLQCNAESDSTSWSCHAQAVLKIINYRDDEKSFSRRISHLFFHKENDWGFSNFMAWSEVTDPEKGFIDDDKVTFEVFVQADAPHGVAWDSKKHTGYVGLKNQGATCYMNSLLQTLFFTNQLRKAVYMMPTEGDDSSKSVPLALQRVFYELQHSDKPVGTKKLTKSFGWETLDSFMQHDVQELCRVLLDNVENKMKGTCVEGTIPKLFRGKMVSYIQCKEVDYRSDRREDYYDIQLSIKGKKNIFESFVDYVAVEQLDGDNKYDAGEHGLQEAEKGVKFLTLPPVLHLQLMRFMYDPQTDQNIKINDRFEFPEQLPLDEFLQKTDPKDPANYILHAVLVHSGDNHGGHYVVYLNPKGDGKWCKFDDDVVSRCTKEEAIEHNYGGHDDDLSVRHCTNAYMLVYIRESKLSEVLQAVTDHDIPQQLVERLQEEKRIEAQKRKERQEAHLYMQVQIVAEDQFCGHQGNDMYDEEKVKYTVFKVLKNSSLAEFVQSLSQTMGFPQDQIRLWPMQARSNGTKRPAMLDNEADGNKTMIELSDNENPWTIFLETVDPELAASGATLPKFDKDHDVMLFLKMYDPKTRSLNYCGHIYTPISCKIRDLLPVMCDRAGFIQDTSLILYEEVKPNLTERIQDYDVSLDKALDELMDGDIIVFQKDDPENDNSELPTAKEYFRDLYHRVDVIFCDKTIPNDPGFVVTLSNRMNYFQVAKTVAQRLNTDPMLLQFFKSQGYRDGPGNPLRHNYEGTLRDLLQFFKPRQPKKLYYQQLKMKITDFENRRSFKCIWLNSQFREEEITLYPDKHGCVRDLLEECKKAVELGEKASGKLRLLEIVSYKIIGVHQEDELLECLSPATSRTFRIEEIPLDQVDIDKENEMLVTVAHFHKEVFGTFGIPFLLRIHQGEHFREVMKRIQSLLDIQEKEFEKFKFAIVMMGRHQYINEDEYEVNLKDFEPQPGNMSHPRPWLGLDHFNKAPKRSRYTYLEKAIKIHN

mUSP18 [1] = molecular target: T4, mUSP18 (Mus musculus, UniProt Q9WTV6); experiment: IC50 determination, fluorogenic ISG15CT-Rho-morpholine activity assay; type: biochemical, murine; conditions: after 30 min incubation; purified compound; ISG15CT-Rho-morpholine substrate
T4 construct: (46-368); His-tag (N); made in house
T4 sequence (Q9WTV6 46-368): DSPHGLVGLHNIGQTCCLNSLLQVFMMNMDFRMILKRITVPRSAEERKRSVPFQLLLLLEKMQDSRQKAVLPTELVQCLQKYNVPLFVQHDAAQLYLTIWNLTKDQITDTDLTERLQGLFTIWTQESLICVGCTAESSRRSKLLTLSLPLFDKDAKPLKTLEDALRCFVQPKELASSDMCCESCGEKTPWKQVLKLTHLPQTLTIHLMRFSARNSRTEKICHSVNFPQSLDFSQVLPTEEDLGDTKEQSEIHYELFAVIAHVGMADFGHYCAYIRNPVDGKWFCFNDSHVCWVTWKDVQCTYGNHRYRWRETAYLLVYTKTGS

USP32 = molecular target: T5, USP32 (Homo sapiens, UniProt Q8NFA0); experiment: IC50 determination, fluorogenic Ub-Rho-morpholine activity assay; type: biochemical; conditions: after 30 min incubation; purified compound
T5 construct: (1-1604); His-tag (N); made in house
T5 sequence (Q8NFA0 whole entry): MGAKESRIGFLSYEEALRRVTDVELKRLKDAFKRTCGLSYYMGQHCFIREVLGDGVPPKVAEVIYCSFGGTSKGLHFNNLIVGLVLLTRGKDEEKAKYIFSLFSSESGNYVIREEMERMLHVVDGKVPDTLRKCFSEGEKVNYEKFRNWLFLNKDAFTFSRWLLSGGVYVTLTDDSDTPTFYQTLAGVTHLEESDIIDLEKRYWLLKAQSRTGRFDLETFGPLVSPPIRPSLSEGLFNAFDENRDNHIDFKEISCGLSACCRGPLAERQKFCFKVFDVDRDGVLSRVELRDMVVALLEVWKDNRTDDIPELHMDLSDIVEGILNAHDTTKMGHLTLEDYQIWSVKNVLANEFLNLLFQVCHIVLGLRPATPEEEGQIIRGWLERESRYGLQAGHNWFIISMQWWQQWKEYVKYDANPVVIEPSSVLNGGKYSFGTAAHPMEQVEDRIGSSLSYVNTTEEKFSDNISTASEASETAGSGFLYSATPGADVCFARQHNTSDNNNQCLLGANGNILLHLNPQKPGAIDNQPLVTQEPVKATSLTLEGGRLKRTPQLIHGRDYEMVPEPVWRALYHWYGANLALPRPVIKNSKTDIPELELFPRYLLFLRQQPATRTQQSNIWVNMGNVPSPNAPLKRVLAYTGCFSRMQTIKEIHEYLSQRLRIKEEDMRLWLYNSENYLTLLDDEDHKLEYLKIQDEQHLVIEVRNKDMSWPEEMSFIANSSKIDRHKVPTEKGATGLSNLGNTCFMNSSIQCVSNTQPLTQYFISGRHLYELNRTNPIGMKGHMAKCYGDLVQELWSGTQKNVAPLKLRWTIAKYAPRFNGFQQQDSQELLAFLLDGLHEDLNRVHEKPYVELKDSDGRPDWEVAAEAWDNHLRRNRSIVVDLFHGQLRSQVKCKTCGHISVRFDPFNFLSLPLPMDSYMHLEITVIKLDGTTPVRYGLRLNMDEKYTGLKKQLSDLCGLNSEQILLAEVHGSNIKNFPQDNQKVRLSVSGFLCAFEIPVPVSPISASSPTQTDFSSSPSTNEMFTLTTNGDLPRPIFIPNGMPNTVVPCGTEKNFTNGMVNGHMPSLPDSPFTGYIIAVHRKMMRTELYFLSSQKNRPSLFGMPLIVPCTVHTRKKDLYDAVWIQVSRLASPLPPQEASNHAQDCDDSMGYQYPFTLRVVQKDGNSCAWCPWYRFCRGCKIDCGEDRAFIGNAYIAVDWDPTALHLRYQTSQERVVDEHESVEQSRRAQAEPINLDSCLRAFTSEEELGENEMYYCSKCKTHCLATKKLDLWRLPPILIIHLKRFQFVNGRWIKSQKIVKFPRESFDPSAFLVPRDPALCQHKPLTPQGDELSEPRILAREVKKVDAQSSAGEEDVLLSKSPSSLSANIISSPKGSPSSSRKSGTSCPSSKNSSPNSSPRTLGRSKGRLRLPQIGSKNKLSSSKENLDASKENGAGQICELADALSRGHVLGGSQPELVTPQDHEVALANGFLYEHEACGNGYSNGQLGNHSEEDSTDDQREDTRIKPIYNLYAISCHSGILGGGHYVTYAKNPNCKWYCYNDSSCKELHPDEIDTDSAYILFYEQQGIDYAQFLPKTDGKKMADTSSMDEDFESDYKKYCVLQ

USP16 = USP16 (Homo sapiens, UniProt Q9Y5T5); experiment: biochemical
USP16, sequence (Q9Y5T5 22-823): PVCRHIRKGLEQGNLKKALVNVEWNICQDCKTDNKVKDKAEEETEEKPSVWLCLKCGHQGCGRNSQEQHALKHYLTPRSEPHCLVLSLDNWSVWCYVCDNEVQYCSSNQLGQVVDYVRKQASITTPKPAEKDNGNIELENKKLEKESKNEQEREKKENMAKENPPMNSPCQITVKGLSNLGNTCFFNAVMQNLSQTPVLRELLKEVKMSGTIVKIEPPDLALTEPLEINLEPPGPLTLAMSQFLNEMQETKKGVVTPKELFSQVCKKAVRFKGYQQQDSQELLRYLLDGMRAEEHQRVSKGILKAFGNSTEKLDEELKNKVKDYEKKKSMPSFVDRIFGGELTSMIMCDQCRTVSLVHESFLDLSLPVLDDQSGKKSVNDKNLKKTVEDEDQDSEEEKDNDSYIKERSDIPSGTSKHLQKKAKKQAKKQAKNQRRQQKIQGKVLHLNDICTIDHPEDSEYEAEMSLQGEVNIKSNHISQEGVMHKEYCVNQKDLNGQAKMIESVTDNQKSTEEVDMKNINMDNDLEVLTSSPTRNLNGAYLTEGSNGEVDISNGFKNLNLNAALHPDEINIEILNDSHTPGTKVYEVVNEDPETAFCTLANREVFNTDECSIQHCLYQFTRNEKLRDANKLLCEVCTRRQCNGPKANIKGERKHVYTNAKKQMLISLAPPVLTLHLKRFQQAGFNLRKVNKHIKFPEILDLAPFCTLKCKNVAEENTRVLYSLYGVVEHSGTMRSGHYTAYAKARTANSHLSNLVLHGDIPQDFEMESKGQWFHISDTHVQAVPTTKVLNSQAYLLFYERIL
Experimental: This panel included five proteases from the USP family, two from the UCH family, and one OTU. The IC50 values were determined in a well‐established biochemical activity assay using the fluorogenic substrate Ub‐Rho‐morpholine.^[ [33] ^]
(§1) Enzymes were pre-incubated with a concentration series of the compounds for 30 minutes at
(§2) room temperature, before addition of the substrate and direct read-out by fluorescence
(§3) intensity. Data is presented as mean ± SD, n=3.
USP16 Full length N-terminal His-tag Q9Y5T5 In-house, [Mons, 2 nM
IC50 and kinact/KI determination
(§4) The assays were performed at room temperature in “nonbinding surface flat bottom low flange”
(§5) TrisꞏHCl, 100 mM NaCl, pH 7.6, 2.0 mM cysteine, 1 mg/mL 3-[(3-cholamidopropyl)-
(§6) dimethylammonio]propanesulfonic acid (CHAPS), and 0.5 mg/mL γ-globulins from bovine
(§7) blood (BGG). […] The compounds were dissolved in 10
(§8) mM DMSO stocks, and appropriate volumes were transferred to the empty plates using a
(§9) Labcyte Echo550 acoustic dispenser. A DMSO back-fill was performed to obtain equal volumes of DMSO (400 μL) in each well. N-ethylmaleimide (NEM, 10 mM) was used a positive
(§10) steps were performed on a Biotek MultiflowFX liquid dispenser. A 10 μL portion of buffer was added and the plate was vigorously shaken for 20s. Next, 5 μL of recombinant enzyme (4x final concentration) was added followed by incubation for 1h. A 5 μL portion of the substrate
(§11) (Ub-RhoMP[2] for all DUBs, ISG15ct-RhoMP (vide supra) for USP18 and Z-FR-AMC [Bachem,
(§12) RhoMP, 10 µM for Z-FR-AMC), and the increase in fluorescence over time was recorded using
(§13) excitation 360 nm, emission 450 nm for AMC). The initial enzyme velocities were calculated
(§14) from the slopes, normalized to the positive and negative controls, and plotted against the
(§15) inhibitor concentrations using the built-in equation “[inhibitor] vs response − variable slope
(§16) (four parameters), least-squares fit” with constraints “Bottom = 0” and “Top = 100” in GraphPad
(§17) Prism 7 software to obtain the IC50 values.
(§18) All data fitting and calculations were done using GraphPad Prism 7 software.

USP30 = molecular target: T6, USP30 (Homo sapiens, UniProt Q70CQ3); experiment: biochemical
T6 sequence (Q70CQ3 57-517): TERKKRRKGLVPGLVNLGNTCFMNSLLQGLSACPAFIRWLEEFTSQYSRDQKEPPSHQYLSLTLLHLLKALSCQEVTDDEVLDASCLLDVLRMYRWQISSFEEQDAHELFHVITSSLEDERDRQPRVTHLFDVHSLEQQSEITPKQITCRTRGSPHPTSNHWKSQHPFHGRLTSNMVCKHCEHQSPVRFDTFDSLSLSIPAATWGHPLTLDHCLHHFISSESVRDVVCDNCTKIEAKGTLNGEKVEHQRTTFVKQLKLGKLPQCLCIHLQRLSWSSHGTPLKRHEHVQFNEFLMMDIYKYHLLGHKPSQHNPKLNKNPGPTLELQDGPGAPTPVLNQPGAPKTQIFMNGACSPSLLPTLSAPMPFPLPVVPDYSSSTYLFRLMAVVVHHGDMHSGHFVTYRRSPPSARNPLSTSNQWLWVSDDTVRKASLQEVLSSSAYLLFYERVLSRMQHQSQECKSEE
Experimental: This panel included five proteases from the USP family, two from the UCH family, and one OTU. The IC50 values were determined in a well‐established biochemical activity assay using the fluorogenic substrate Ub‐Rho‐morpholine.^[ [33] ^] For USP18, which is unreactive to Ub but specific for ISG15, we used the ISG15CT‐Rho‐morpholine (consisting of the C‐terminal domain of ISG15) substrate to monitor its activity (see Supporting Information for preparation of this substrate).
as §1, §2, §3
room temperature, followed by the addition of substrate and direct read-out by fluorescence
IC50 and kinact/KI determination
as §4, §5, §6, §7, §8, §9, §10, §11, §12, §13, §14, §15, §16, §17, §18

mUSP18 [2] = molecular target: T4, mUSP18; experiment: High-throughput screening, ISG15ct-RhoMP, single dose 1.25 µM; type: biochemical, murine; conditions: mUSP18 %inhibition
[3] = carboxylic acid (CA) building block alone, read-out: %inh CA only
[4] = carboxylic acid (CA) with coupling reagents DIC/HOBT, read-out: %inh CA + DIC/HOBT

COc1ccccc1-c1cc(C(=O)N[C@@H]2CCN(C#N)C2)n[nH]1 [Compound 2]
IC50 (UCHL1): 110 µM | IC50 (UCHL3): 168 µM | IC50 (USP7): 52 µM | IC50 (mUSP18 [1]): 0.029 µM | IC50 (USP32): 0.072 µM | IC50 (USP16): 22.6 µM | IC50 (USP30): 59 nM

N#CN1CC[C@@H](NC(=O)c2ccc(F)c(F)c2)C1 [Compound 4]
IC50 (UCHL1): > 200 µM | IC50 (UCHL3): > 200 µM | IC50 (USP7): 210 µM | IC50 (mUSP18 [1]): 9.8 µM | IC50 (USP32): 184 µM | IC50 (USP16): 262 µM | IC50 (USP30): 890 nM

N#CN1CC[C@H](C(=O)Nc2ncc(N3CCOCC3)s2)C1 [Compound 5]
less potency toward USP18 and USP30 compared with UCHL1 (UCHL1; ratio of IC50 values): 20–40 fold | IC50 (UCHL3): > 200 µM | IC50 (mUSP18 [1]): 5.1 µM | IC50 (USP32): 242 µM

N#CN1CC[C@@H](NC(=O)c2ccc(N3CCCC3)cc2F)C1 [Compound 3]
IC50 (UCHL1): > 200 µM | IC50 (UCHL3): > 200 µM | IC50 (USP7): 171 µM | IC50 (mUSP18 [1]): 5.5 µM | IC50 (USP32): 59 µM | IC50 (USP16): > 200 µM | IC50 (USP30): 2400 nM

Cn1c(=O)c2c(ncn2CC(=O)O)n(C)c1=O [CA018]
inhibition at 1.25 µM (mUSP18 [2]; [3]): -2.06% | inhibition at 1.25 µM (mUSP18 [2]; [4]): -10.4%

O=C(O)c1ccnc(C2CC2)n1 [CA347]
inhibition at 1.25 µM (mUSP18 [2]; [3]): -0.62% | inhibition at 1.25 µM (mUSP18 [2]; [4]): 1.21%

O=C(O)CC1CCN(c2ccc(Cl)nn2)CC1 [CA453]
inhibition at 1.25 µM (mUSP18 [2]; [3]): -0.89% | inhibition at 1.25 µM (mUSP18 [2]; [4]): -4.65%

CN(C)c1ccc(C(=O)O)cc1 [CA062]
inhibition at 1.25 µM (mUSP18 [2]; [3]): -0.0145% | inhibition at 1.25 µM (mUSP18 [2]; [4]): 33.7%

Cn1cc(-c2cc[nH]n2)c(C(=O)O)n1 [CA271]
inhibition at 1.25 µM (mUSP18 [2]; [3]): 1% | inhibition at 1.25 µM (mUSP18 [2]; [4]): 7%

CN(C)S(=O)(=O)c1ccc(N2CCCCC2)c(C(=O)O)c1 [CA379]
inhibition at 1.25 µM (mUSP18 [2]; [3]): -2.55% | inhibition at 1.25 µM (mUSP18 [2]; [4]): -9.97%

O=C(O)Cc1csc(N2CCCC2=O)n1 [CA388]
inhibition at 1.25 µM (mUSP18 [2]; [3]): -10.4% | inhibition at 1.25 µM (mUSP18 [2]; [4]): -3.35%

O=C(O)Cc1cnn(Cc2ccccc2)c1 [CA385]
inhibition at 1.25 µM (mUSP18 [2]; [3]): -2.43% | inhibition at 1.25 µM (mUSP18 [2]; [4]): -10.4%

O=C(O)C1(n2cnnn2)CC1 [CA118]
inhibition at 1.25 µM (mUSP18 [2]; [3]): 12.1% | inhibition at 1.25 µM (mUSP18 [2]; [4]): 4.09%

O=C(O)c1cc(-n2cccc2)ccn1 [CA362]
inhibition at 1.25 µM (mUSP18 [2]; [3]): 6.21% | inhibition at 1.25 µM (mUSP18 [2]; [4]): 0.7%

O=C(O)c1cnn(CC2CCC2)c1 [CA454]
inhibition at 1.25 µM (mUSP18 [2]; [3]): -1.23% | inhibition at 1.25 µM (mUSP18 [2]; [4]): -8.94%

CC1CCCCN1S(=O)(=O)c1ccccc1C(=O)O (stereo not drawn) [CA468]
inhibition at 1.25 µM (mUSP18 [2]; [3]): -4.17% | inhibition at 1.25 µM (mUSP18 [2]; [4]): 7%

Cn1cc(-c2cc(C(=O)O)no2)cn1 [CA466]
inhibition at 1.25 µM (mUSP18 [2]; [3]): -0.57% | inhibition at 1.25 µM (mUSP18 [2]; [4]): -1.79%

Cc1cc(C(=O)O)c(C)n1-c1ccon1 [CA214]
inhibition at 1.25 µM (mUSP18 [2]; [3]): 6.76% | inhibition at 1.25 µM (mUSP18 [2]; [4]): 33.1%

O=C(O)Cc1csc(-c2nnc[nH]2)n1 [CA286]
inhibition at 1.25 µM (mUSP18 [2]; [3]): 1.07% | inhibition at 1.25 µM (mUSP18 [2]; [4]): -3.16%

O=C(O)c1cc(-c2ccc(Cl)cc2)oc1C(F)(F)F [CA133]
inhibition at 1.25 µM (mUSP18 [2]; [3]): 11% | inhibition at 1.25 µM (mUSP18 [2]; [4]): 11.8%

CC(C)CC(=O)O [CA003]
inhibition at 1.25 µM (mUSP18 [2]; [3]): -0.18% | inhibition at 1.25 µM (mUSP18 [2]; [4]): -12.3%

O=C(O)c1cnn(CCN2CCCC2)c1 [CA221]
inhibition at 1.25 µM (mUSP18 [2]; [3]): 5.71% | inhibition at 1.25 µM (mUSP18 [2]; [4]): 3.5%

O=C(O)Cc1ccc(OCc2ccccn2)cc1 [CA435]
inhibition at 1.25 µM (mUSP18 [2]; [3]): -5.3% | inhibition at 1.25 µM (mUSP18 [2]; [4]): -2.79%

O=C(O)c1cnn(-c2ccccc2)n1 [CA377]
inhibition at 1.25 µM (mUSP18 [2]; [3]): 2.74% | inhibition at 1.25 µM (mUSP18 [2]; [4]): -10.8%

CC(C)(C)OC(=O)NCC(=O)O [CA021]
inhibition at 1.25 µM (mUSP18 [2]; [3]): -6.16% | inhibition at 1.25 µM (mUSP18 [2]; [4]): -9.92%

O=Cc1ccccc1C(=O)O [CA045]
inhibition at 1.25 µM (mUSP18 [2]; [3]): -3.41% | inhibition at 1.25 µM (mUSP18 [2]; [4]): -8.39%

Cc1cc(C)cc(N(CCC(=O)O)S(=O)(=O)c2ccc(Cl)cc2)c1 [CA381]
inhibition at 1.25 µM (mUSP18 [2]; [3]): 1.09% | inhibition at 1.25 µM (mUSP18 [2]; [4]): -13.7%

O=C(O)c1occc1CN1CCOCC1 [CA206]
inhibition at 1.25 µM (mUSP18 [2]; [3]): 1.55% | inhibition at 1.25 µM (mUSP18 [2]; [4]): 4.49%

O=C(O)c1ccc(CN2CCOCC2)cc1 [CA187]
inhibition at 1.25 µM (mUSP18 [2]; [3]): 12.1% | inhibition at 1.25 µM (mUSP18 [2]; [4]): -2.66%
